Source: ChEMBL document CHEMBL1132909 (Bioorg Med Chem Lett, 2000)

Biological target: Neuraminidase (Influenza A virus (A/Puerto Rico/8/1934(H1N1)), UniProt P03468)
Test: Inhibition of neuraminidase in Influenza A
Format: functional

Chain of Neuraminidase (Influenza A virus (A/Puerto Rico/8/1934(H1N1)), UniProt P03468) (P03468 whole entry): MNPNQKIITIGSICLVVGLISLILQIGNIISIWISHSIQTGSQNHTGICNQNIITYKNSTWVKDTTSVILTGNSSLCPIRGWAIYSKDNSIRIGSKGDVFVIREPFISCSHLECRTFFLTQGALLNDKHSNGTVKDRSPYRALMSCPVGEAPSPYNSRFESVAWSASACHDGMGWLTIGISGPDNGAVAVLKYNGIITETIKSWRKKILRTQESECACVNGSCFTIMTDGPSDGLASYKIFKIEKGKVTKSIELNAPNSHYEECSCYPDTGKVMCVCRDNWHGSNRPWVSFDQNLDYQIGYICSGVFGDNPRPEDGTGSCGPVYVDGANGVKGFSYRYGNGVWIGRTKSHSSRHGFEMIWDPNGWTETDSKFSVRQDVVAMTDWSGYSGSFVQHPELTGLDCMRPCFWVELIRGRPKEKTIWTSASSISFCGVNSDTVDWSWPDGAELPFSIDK

Row | Compound | IC50 [nM]
1 | CC(=O)N[C@H]1[C@H](N2CCCC2)C=C(C(=O)O)C[C@@H]1N | 310
2 | CCC1CCN([C@@H]2C=C(C(=O)O)C[C@H](N)[C@H]2NC(C)=O)CC1 | 52
3 | CC(=O)N[C@H]1[C@H](N2CCCCCCCC2)C=C(C(=O)O)C[C@@H]1N | 75
4 | CC(=O)N[C@H]1[C@H](N2CCCCC[C@@H]2CO)C=C(C(=O)O)C[C@@H]1N | 8
5 | CC(=O)N[C@H]1[C@H](N2CCN(C)CC2)C=C(C(=O)O)C[C@@H]1N | 1900
6 | CCC1(CC)CN([C@@H]2C=C(C(=O)O)C[C@H](N)[C@H]2NC(C)=O)C1 | 265
7 | CC(=O)N[C@H]1[C@H](N2CCCCC2)C=C(C(=O)O)C[C@@H]1N | 25
8 | CC(=O)N[C@H]1[C@H](N2C3CCCC2CC3)C=C(C(=O)O)C[C@@H]1N | 32
9 | CCCC1CCN([C@@H]2C=C(C(=O)O)C[C@H](N)[C@H]2NC(C)=O)CC1 | 40
10 | CC(=O)N[C@H]1[C@H](N2CCCCCC2)C=C(C(=O)O)C[C@@H]1N | 35
11 | CC(=O)N[C@H]1[C@H](N2CCC(C)CC2)C=C(C(=O)O)C[C@@H]1N | 51
12 | CC(=O)N[C@H]1[C@H](N2CCOCC2)C=C(C(=O)O)C[C@@H]1N | 260
13 | CC(=O)N[C@H]1[C@H](N2CCCCCCC2)C=C(C(=O)O)C[C@@H]1N | 26
14 | CC(=O)N[C@H]1[C@H](N2CCC2)C=C(C(=O)O)C[C@@H]1N | 1000
